In patent US20060104985A1, “Dengue virus infection inhibitor” (priority 2002, published 2006):

What was measured:
[1] = test system: infection of K562 cells with dengue virus; experiment: Virus infection test of K562 cells with oligosaccharide-pretreated dengue virus, antigen positive cells by flow cytometer; type: cell-based; details: virus pretreated with oligosaccharide at 28° C. for 30 minutes, infection at 37° C. for 2 hours
Procedure: In any cases, 1 mM stock solution was prepared with sterile PBS(−). This solution was appropriately diluted and used for the infection inhibition test.
Dilution was carried out with serum-free RPMI medium (SF-RPMI) containing 0.2% BSA so as to give a final virus concentration of 3×105 FFU (focus forming unit)/sample, and the solution was stirred well and placed on ice.
To 630 μl (virus volume per 1 sample) of the dengue virus solution prepared in (2) described above, an equivalent amount of a diluted solution containing an oligosaccharide was added, stirred well, and incubated at 28° C. for 30 minutes. This solution was used as a pretreated virus solution.
In addition, as a negative control, the one obtained by mixing PBS(−) with the virus solution was used.
After K562 cells were washed once with SF-RPMI, the cells were prepared at 1×10^6 cells/ml with 0.1% BSA-SF-RPMI. This cell suspension was dispensed in 100 μl aliquots into tubes. Thereto was added the pretreated virus solution, stirred gently, and infection of cells was carried out at 37° C. for 2 hours. During this time, the solution in the tube was gently stirred every 20 minutes. After the solution was centrifuged at 3,400 rpm for 3 minutes, the virus solution was removed, and the cells were washed 3 times with 0.1% BSA-SF-RPMI. To the cell pellet, 2 ml of RPMI medium containing 2% serum (2% FCS-RPMI) was added, and suspended. […]

dengue virus infection = details: rhesus monkeys; cited from earlier work
[2] = test system: binding of dengue virus to K562 cells; experiment: Inhibition of binding of dengue virus to K562 cell surface, flow cytometer (Example 2); type: cell-based
Procedure: After K562 cells were cultured until confluent, the cells were dispensed into a microtube to be 2×10^5 cells/0.1 ml. After this microtube was centrifuged at 4° C. for 2 minutes at 10,000 rpm, the obtained cell pellet was washed once with 1 ml of PBS containing 0.1% BSA. After a dengue virus solution (2,000 units/ml) and PG (0, 100, 200 or 500 μM) or GA1 (500 μM), which is a reference glycolipid, were preincubated in PBS containing 0.1% BSA at 4° C. for 1 hour, 100 μl of each of the solutions was added to K562 cells, and the virus was allowed to bind to the cell at 4° C. for 1 hour. Incidentally, as virus(−), only PBS containing 0.1% BSA was added in the same amount. After the reaction, the cells were washed 3 times with 1 ml of chilled PBS(−), 100 μl of a solution of human anti-flavivirus antiserum (lot No. 1), which had been diluted to 200-fold, was added, respectively, as a primary antibody, well suspended, and reacted at 4° C. for 30 minutes. The cells were washed 3 times with 1 ml of chilled PBS(−), and 100 μl of a solution of a FITC-labeled goat anti-human IgG (Zymed), which had been diluted to 50-fold, was added, respectively, as a secondary antibody and shielded from light. Then, they were reacted at 4° C. for 30 minutes. […]

[3] = test system: binding of dengue virus to K562 cells; experiment: Inhibitory activity on binding of dengue virus to K562 cell surface, flow cytometer (Example 3); type: cell-based
Procedure: After K562 cells were cultured until confluent, the cells were dispensed into a microtube to be 4×10^5 cells/0.1 ml. After this microtube was centrifuged at 4° C. for 3 minutes at 3,500 rpm, the obtained cell pellet was washed once with 1 ml of PBS containing 0.1% BSA. After it was further centrifuged at 4° C. for 3 minutes at 3,500 rpm, a dengue virus stock solution was diluted with PBS containing 0.1% BSA to the concentrations of 5,000 units/ml, 2,000 units/ml, 1,000 units/ml, and 500 units/ml, respectively. Then, 100 μl of each of the solutions was added to the K562 cells, and reacted at 4° C. for 1 hour.
Incidentally, as virus(−), a solution to which only PBS containing 0.1% BSA was added in the same amount was used.
After the reaction, the cells were washed 3 times with 1 ml of chilled PBS(−), 100 μl of a solution of human anti-flavivirus antiserum (lot No. 1), which had been diluted to 200-fold, was added, respectively, as a primary antibody, well suspended, and reacted at 4° C. for 30 minutes. […]
K562 cells (1×10^5 cells) were seeded on a 24-well culture plate, and the total volume was made up to 1 ml with RPMI medium. […] The solution was transferred to a microtube, and virus binding was evaluated by the method described in (1).

[4] = test system: dengue virus (D2Th7 strain); experiment: TLC/virus-binding assay of glycolipids; details: HPLC fractions of the neutral glycolipid fraction of mosquito-derived C6/36 cells
Procedure: The neutral glycolipid fractions I to IV obtained in the foregoing (c) (10 μl each), and as a reference standard, LacCer (1 μl), CTH (2 μl), paragloboside (PG: Galβ1-4GlcNAcβ1-3Galβ1-4Glcβ1-1′Cer) (2 μl), GA1 (Galβ1-3GalNAcβ1-4Galβ1-4Glcβ1-1′Cer) (2 μl), globoside (GalNAcβ1-3Galα1-4Galβ1-4Glcβ1-1′Cer) (2 μl) were spotted on TLC plates (Polygram Sil G), developed with acetone once, and developed with CHCl3/MeOH/12 mM MgCl2 (50/40/10, by vol). Then, orcinol reagent was sprayed and the plate was heated at 110° C., whereby color reaction was developed. With regard to the neutral glycolipid fractions I to IV, TLC/virus-binding assay was carried out by the method described above.
The neutral glycolipid fraction II-2 (10 μl) obtained by the foregoing method described in (1), PI (10 μl), PG (2 μl) and globoside (1 μl) were spotted on a TLC plate (Polygram Sil G), developed with acetone once, and developed with CHCl3/MeOH/12 mM MgCl2 (50/40/10, by vol). […]
Subsequently, 2.5 ml of human anti-flavivirus antiserum diluted to 1,000-fold with Solution A was added and reacted at room temperature for 1 hour. […] Finally, the plates were reacted with 2.5 ml of a color-developing substrate solution (0.1 M citrate buffer pH 6.0 (2.5 ml), 0.11 M 4-chloro-1-naphthol in CH3CN (50 μl), 0.06 M DEPDA in CH3CN (50 μl), 30% H2O2 (5 μl)), and bound virus particles were detected. […]

CC(=O)N[C@H]1[C@H](O[C@H]2[C@@H](O)[C@@H](CO)O[C@@H](O[C@H]3[C@H](O)[C@@H](O)C(O)O[C@@H]3CO)[C@@H]2O)O[C@H](CO)[C@@H](O[C@@H]2O[C@H](CO)[C@H](O)[C@H](O)[C@H]2O)[C@@H]1O (stereo partly drawn) [paragloboside saccharide chain, Galβ1-4GlcNAcβ1-3Galβ1-4Glc]
inhibition of infection of K562 cells with dengue virus (FIG. 9) [1]: inhibited the infection of K562 cells with dengue virus depending on the concentration

NC(=O)c1ncn([C@@H]2O[C@H](CO)[C@@H](O)[C@H]2O)n1 [ribavirin]
adverse effects induced (dengue virus infection): anemia or thrombocytosis | preventive effect against dengue virus infection (dengue virus infection): did not show a preventive effect

Galβ1-3GalNAcβ1-4Galβ1-4Glcβ1-1′Cer [GA1, reference compound]
inhibition of binding of dengue virus to K562 cells (FIG. 5) ([2]; 500 μM, preincubated with virus 2,000 units/ml at 4° C. for 1 hour): could not inhibit | effect on binding of dengue virus to the cell surface (FIG. 6) ([3]; negative control, GA1 500 μM): not affected at all

Galβ1-4GlcNAcβ1-3Galβ1-4Glcβ1-1′Cer [paragloboside]
inhibition of binding of dengue virus to K562 cells (FIG. 5) ([2]; PG 100, 200 or 500 μM preincubated with virus 2,000 units/ml at 4° C. for 1 hour): inhibited depending on the concentration of PG | inhibition of the binding of dengue virus to K562 cells (FIG. 6) ([3]; paragloboside 100, 200 or 500 μM, virus 2,000 units/ml): inhibition of the binding of dengue virus to K562 cells is caused depending on the concentration of paragloboside

Galβ1-4GlcNAcβ1-3Manβ1-4Glcβ1-1Cer [Fraction 15]
binding of purified glycolipids to dengue virus on TLC plate (FIG. 8) [4]: binds to the virus very strongly

GlcNAcβ1-3Manβ1-4Glcβ1-1Cer [Fraction 13]
binding of purified glycolipids to dengue virus on TLC plate (FIG. 8) [4]: binds to the virus very strongly
